{"source": "paper PMC6371759", "about": "(Chemical Science, 2018)", "target": "human serum albumin (HSA) (Homo sapiens, UniProt P02768)", "sequence (P02768 25-609)": "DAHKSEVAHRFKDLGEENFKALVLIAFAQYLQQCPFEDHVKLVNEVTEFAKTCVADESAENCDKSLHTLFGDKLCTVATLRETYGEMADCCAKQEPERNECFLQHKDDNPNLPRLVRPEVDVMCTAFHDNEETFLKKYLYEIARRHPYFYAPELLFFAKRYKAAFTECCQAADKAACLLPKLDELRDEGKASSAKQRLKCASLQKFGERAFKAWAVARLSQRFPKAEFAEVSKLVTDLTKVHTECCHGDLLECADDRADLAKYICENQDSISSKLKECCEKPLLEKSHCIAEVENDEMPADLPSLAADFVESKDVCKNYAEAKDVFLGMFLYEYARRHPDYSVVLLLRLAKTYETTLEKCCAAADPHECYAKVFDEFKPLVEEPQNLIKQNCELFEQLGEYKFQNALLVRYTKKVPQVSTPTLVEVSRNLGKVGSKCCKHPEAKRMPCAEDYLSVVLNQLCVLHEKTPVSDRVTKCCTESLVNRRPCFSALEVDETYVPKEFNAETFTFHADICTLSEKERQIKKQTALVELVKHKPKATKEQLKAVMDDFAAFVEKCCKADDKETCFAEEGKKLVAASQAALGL", "assay": "tryptophan fluorescence quenching", "type": "binding"}
{"smiles": "C[C@]12CC[C@H]3[C@@H](CCC4=CC(=O)CC[C@@]43C)[C@@H]1CC[C@@H]2O", "note": "[testosterone]", "values": [{"measurement": "Kd", "result": "363 ± 83", "unit": "µM"}]}
